Results as given in patent US10350240B2, “Lanthanum carbonate hydroxide, lanthanum oxycarbonate and methods of their manufacture and use” (Spectrum Pharmaceuticals, Inc., priority 2010, dated 2019).

What was measured:
[1] = Phosphate binding at buffered pH 4.5 in dissolution unit, ICP-OES (% reaction completion); conditions: Renazorb-014 (LDOC), second block; 4.5 pH @30 min
From the text: For each run, both the Renazorb-013 (LCH) and the Renazorb-014 (LDOC) were characterized. Renazorb-013 is important to characterize because its features (particularly physical features such as BET-Surface-Area, Particle Size Distribution, crystalline phase by XRD, bulk density) strongly impact the same critical features of Renazorb-014. The typical characterization suite of Renazorb-013 and Renazorb-014 includes BET-Surface-Area (BET-SA), Particle Size Distribution (PSD), crystalline phase by XRD, bulk density, chloride content, lanthanum content, carbon content. On top of this Renazorb-014 is tested for phosphate binding performance (4.5 pH @30 min). Assays such as La, C, Cl are typically fairly consistent and not under scrutiny.
The following procedure may be used to determine the phosphate binding kinetics/capacity in solutions at a buffered pH=4.5 for lanthanum dioxycarbonate.
Briefly, a heated, acetate buffered acidic solution, adjusted to a known pH and containing a known amount of phosphate is stirred constantly throughout the test in a dissolution unit. To this stirred solution is added a known amount of lanthanum compound at time=0. […] All samples are diluted in the proper matrix and analyzed for phosphorus using an Inductively Coupled Plasma instrument equipped with an Optical Emission spectrophotometer detector (ICP-OES). […]

[2] = BET surface area; format: physicochemical; conditions: Renazorb-014 (LDOC), second block
From the text: By “relatively greater” it is meant that if the processes of the '782 patent and those of the present invention were run under generally identical conditions but with, for example, ammonium carbonate or bicarbonate used instead of sodium carbonate, the surface area, as measured by BET or otherwise, of the LCH or lanthanum oxycarbonates of the present invention would be even higher than that resulting from the practice of the '782 patent. The ammonium carbonate process of the present invention should yield BET surface areas (SA) in the 1 to 100 m^2/g range for LCH. […] To this end, as used herein “relatively greater BET surface area” refers to the greater BET surface area of the LDOC compound of the present invention when compared to the respective compound in U.S. Pat. No. 7,588,782 when made using similar ingredients, and under similar conditions but using the process described in that patent. As noted above, both processes are capable of producing very fine particles/high surface area. Again without wishing to be bound by any particular theory of operation, it may be that the greater porosity of the materials resulting from the present invention may effectively increase the overall surface area (or more reactive surfaces) allowing for, inter alia, improved binding kinetics. This is predicated on the porosity of individual or primary particles, not aggregates. Thus, it is believed that the primary particles of the invention provide relatively greater porosity than would be measured for particles made in accordance with the '782 patent. […] Furthermore, “porosity” as used herein means cumulative adsorption pore volume determined using a static pressure surface area analyzer with nitrogen as the adsorbate and calculating the pore size by The Barrett, Joyner, and Halenda (BJH) method (Barrett E. P., Loyner L. G. and Halenda P. P., The determination of pore volume and area distributions in porous substances. I. Computations from nitrogen isotherms, J. Am. Chem. Soc. 73 (1951) pp. 373-380).
As contemplated herein, BET surface area of the lanthanum compounds disclosed herein may be determined as provided in U.S. Pat. No. 7,588,782.

[3] = Bulk density; format: physicochemical; conditions: Renazorb-014 (LDOC), second block
Description: Bulk density in accordance with the invention can be determined by standard methods.
Graduated Cylinder Tare Weight was determined to be 225 g. 75 grams of sample was sieved into the graduated cylinder. The Gross Weight was determined to be 299.4 g. The volume of this sample was measured to be 141 mL. Thus, the Bulk Density of the powder is: Bulk Density (g/cc)=(299.4−225)/141=74.4/141=0.5277 g/cc Rounding this value to two decimal places gives a final reported value of 0.53 g/cc. 9.2 RSD=(R1−R2)×100/R1 where: RSD=Relative Standard Deviation (%) R1 & R2=Result of individual repeat (g/cc) 9.3 SR=R×100/V where: SR=Standard Recovery (%) R=Result for Reference Standard (g/cc) V=Historical average for standard (g/cc)

[4] = Laser particle size (Coulter LS230), aggregate D10/D50/D90 by volume; format: physicochemical; conditions: Renazorb-014 (LDOC), second block
From the text: Aggregate size as described herein is either determined by scanning electron microscopy (SEM) or laser diffraction on a Coulter LS230. […] But these appear more aggregated.
Laser particle size data can be produced using, for example, a LS230 Laser Particle Size Analyzer manufactured by Coulter.
Average the runs using the LS230 software and have the software calculate the desired volume D results (i.e. for D1, D10, D50, D90, and D99).
The Refractive Index (RI) of a solid is required to perform an accurate laser PSD analysis for particles under 1 μm. The RI of the test materials were not listed in literature at the time this method was developed. […] Therefore an RI of 2.1 was chosen.

In the case of `O=C([O-])[O-].[La+3].[La+3].[O-2].[O-2]` [Batch 110508, lanthanum dioxycarbonate], the “Po4 binding @4.5 pH (rxn comp. %)” value [1] is reported as 92%, the “Surface Area” value [2] is reported as 16.7 m^2/g and the “Bulk Density” value [3] is reported as 0.56 g/cc. For the same compound, the “D10 Sonicated SOP-QC-GMP-2402” value [4] was 6.6 um, the “D50 Sonicated SOP-QC-GMP-2402” value [4] was 50 um and the “D90 Sonicated SOP-QC-GMP-2402” value [4] was 151 um.
